Experimental data taken from paper PMC7778606, “Development of the phenylpyrazolo[3,4-d]pyrimidine-based, insulin-like growth factor receptor/Src/AXL-targeting small molecule kinase inhibitor” (Theranostics, 2021).

Legend:
Assay in all cases: KINOMEscan competition binding assay
YANK3 = molecular target: T1, YANK3 (Homo sapiens, UniProt Q86UX6); details: LL6 at 10 μM; read-out: Percent Control
T1 construct: purchased DiscoverX KINOMEscan
Method: (§1) Kd values were obtained by KINOMEscan from DiscoverX (San Diego, CA, USA). To briefly summarize, Kd was measured by a competition binding assay that quantitatively measures the ability of a compound to compete with an immobilized ligand. […] Dose response curves of 11 points are obtained for Kd values, which are measured in duplicate. See more details in the cited references [39]-[42] and see also at www.discoverx.com.

PKAC-alpha = molecular target: T2, PKAC-alpha (Homo sapiens, UniProt P17612); details: LL6 at 10 μM; read-out: Percent Control
T2 construct: purchased DiscoverX KINOMEscan
Method: as §1

ERBB2 = molecular target: T3, ERBB2 (Homo sapiens, UniProt P04626); details: LL6 at 10 μM; read-out: Percent Control
T3 construct: purchased DiscoverX KINOMEscan
Method: as §1

JNK2 = molecular target: T4, JNK2 (Homo sapiens, UniProt P45984); details: LL6 at 10 μM; read-out: Percent Control
T4 construct: purchased DiscoverX KINOMEscan
Method: as §1

TIE2 = molecular target: T5, TIE2 (Homo sapiens, UniProt Q02763); details: LL6 at 10 μM; read-out: Percent Control
T5 construct: purchased DiscoverX KINOMEscan
Method: as §1

PLK3 = molecular target: T6, PLK3 (Homo sapiens, UniProt Q9H4B4); details: LL6 at 10 μM; read-out: Percent Control
T6 construct: purchased DiscoverX KINOMEscan
Method: as §1

ERBB4 = molecular target: T7, ERBB4 (Homo sapiens, UniProt Q15303); details: LL6 at 10 μM; read-out: Percent Control
T7 construct: purchased DiscoverX KINOMEscan
Method: as §1

ZAP70 = molecular target: T8, ZAP70 (Homo sapiens, UniProt P43403); details: LL6 at 10 μM; read-out: Percent Control
T8 construct: purchased DiscoverX KINOMEscan
Method: as §1

CDK9 = molecular target: T9, CDK9 (Homo sapiens, UniProt P50750); details: LL6 at 10 μM; read-out: Percent Control
T9 construct: purchased DiscoverX KINOMEscan
T9 sequence (P50750 whole entry): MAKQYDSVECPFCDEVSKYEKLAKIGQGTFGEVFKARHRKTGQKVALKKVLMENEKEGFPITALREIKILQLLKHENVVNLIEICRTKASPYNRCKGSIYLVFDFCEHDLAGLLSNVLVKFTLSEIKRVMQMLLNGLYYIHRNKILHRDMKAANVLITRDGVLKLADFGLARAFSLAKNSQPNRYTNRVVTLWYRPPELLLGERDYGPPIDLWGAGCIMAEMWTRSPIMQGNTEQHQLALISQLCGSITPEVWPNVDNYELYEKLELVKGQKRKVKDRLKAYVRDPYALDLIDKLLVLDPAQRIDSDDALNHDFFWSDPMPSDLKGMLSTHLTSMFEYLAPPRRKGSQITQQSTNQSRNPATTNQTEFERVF
Method: as §1

CDK3 = molecular target: T10, CDK3 (Homo sapiens, UniProt Q00526); details: LL6 at 10 μM; read-out: Percent Control
T10 construct: purchased DiscoverX KINOMEscan
Method: as §1

PDGFRA = molecular target: T11, PDGFRA (Homo sapiens, UniProt P16234); details: LL6 at 10 μM; read-out: Percent Control
T11 construct: purchased DiscoverX KINOMEscan
Method: as §1

PIK3CA = molecular target: T12, PIK3CA (Homo sapiens, UniProt P42336); details: LL6 at 10 μM; read-out: Percent Control
T12 construct: purchased DiscoverX KINOMEscan
Method: as §1

ULK2 = molecular target: T13, ULK2 (Homo sapiens, UniProt Q8IYT8); details: LL6 at 10 μM; read-out: Percent Control
T13 construct: purchased DiscoverX KINOMEscan
Method: as §1

SRPK3 = molecular target: T14, SRPK3 (Homo sapiens, UniProt Q9UPE1); details: LL6 at 10 μM; read-out: Percent Control
T14 construct: purchased DiscoverX KINOMEscan
Method: as §1

CDK2 = molecular target: T15, CDK2 (Homo sapiens, UniProt P24941); details: LL6 at 10 μM; read-out: Percent Control
T15 construct: purchased DiscoverX KINOMEscan
Method: as §1

p38-beta = molecular target: T16, p38-beta (Homo sapiens, UniProt Q15759); details: LL6 at 10 μM; read-out: Percent Control
T16 construct: purchased DiscoverX KINOMEscan
Method: as §1

BTK = molecular target: T17, BTK (Homo sapiens, UniProt Q06187); details: LL6 at 10 μM; read-out: Percent Control
T17 construct: purchased DiscoverX KINOMEscan
Method: as §1

PRKCE = molecular target: T18, PRKCE (Homo sapiens, UniProt Q02156); details: LL6 at 10 μM; read-out: Percent Control
T18 construct: purchased DiscoverX KINOMEscan
Method: as §1

MEK2 = molecular target: T19, MEK2 (Homo sapiens, UniProt P36507); details: LL6 at 10 μM; read-out: Percent Control
T19 construct: purchased DiscoverX KINOMEscan
Method: as §1

PCTK1 = molecular target: T20, PCTK1 (Homo sapiens, UniProt Q00536); details: LL6 at 10 μM; read-out: Percent Control
T20 construct: purchased DiscoverX KINOMEscan
Method: as §1

EGFR = molecular target: T21, EGFR (Homo sapiens, UniProt P00533); details: LL6 at 10 μM; read-out: Percent Control
T21 construct: purchased DiscoverX KINOMEscan
Method: as §1

PAK4 = molecular target: T22, PAK4 (Homo sapiens, UniProt O96013); details: LL6 at 10 μM; read-out: Percent Control
T22 construct: purchased DiscoverX KINOMEscan
Method: as §1

CSF1R = molecular target: T23, CSF1R (Homo sapiens, UniProt P07333)
T23 construct: purchased DiscoverX (KINOMEscan service)
T23 sequence (P07333 20-972): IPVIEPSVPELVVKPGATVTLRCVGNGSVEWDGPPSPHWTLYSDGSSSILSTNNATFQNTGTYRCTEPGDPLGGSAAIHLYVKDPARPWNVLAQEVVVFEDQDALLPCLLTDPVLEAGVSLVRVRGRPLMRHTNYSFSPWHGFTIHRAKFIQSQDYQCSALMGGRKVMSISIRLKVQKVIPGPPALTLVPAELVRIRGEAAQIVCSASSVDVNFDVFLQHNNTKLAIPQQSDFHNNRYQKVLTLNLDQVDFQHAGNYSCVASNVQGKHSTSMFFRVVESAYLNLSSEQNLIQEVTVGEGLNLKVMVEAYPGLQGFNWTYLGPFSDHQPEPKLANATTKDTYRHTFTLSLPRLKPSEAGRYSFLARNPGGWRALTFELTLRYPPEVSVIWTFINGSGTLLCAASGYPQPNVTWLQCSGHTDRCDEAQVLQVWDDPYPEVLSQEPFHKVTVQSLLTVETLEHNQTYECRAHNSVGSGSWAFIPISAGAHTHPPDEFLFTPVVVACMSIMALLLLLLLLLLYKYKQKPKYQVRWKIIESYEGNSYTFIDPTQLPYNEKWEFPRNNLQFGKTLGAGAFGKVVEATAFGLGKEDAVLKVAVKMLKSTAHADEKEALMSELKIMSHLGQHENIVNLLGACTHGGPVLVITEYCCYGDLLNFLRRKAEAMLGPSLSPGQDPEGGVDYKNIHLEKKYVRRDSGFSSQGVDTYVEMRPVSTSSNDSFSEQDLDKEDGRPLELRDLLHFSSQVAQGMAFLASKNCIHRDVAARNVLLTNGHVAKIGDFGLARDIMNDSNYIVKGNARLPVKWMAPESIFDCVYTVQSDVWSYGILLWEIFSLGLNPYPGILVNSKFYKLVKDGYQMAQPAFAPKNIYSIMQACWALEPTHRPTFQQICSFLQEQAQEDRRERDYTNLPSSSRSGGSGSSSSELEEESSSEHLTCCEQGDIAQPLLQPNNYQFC
Method: as §1

PAK1 = molecular target: T24, PAK1 (Homo sapiens, UniProt Q13153); details: LL6 at 10 μM; read-out: Percent Control
T24 construct: purchased DiscoverX KINOMEscan
Method: as §1

MKNK2 = molecular target: T25, MKNK2 (Homo sapiens, UniProt Q9HBH9); details: LL6 at 10 μM; read-out: Percent Control
T25 construct: purchased DiscoverX KINOMEscan
Method: as §1

KIT(V559D,T670I) = molecular target: T26, KIT(V559D,T670I) (Homo sapiens, UniProt P10721, T670I/V559D); details: LL6 at 10 μM; read-out: Percent Control
T26 construct: purchased DiscoverX KINOMEscan
Method: as §1

IR = molecular target: T27, IR (Homo sapiens, UniProt P06213)
T27 construct: purchased DiscoverX (KINOMEscan service)
T27 sequence (P06213 28-1382): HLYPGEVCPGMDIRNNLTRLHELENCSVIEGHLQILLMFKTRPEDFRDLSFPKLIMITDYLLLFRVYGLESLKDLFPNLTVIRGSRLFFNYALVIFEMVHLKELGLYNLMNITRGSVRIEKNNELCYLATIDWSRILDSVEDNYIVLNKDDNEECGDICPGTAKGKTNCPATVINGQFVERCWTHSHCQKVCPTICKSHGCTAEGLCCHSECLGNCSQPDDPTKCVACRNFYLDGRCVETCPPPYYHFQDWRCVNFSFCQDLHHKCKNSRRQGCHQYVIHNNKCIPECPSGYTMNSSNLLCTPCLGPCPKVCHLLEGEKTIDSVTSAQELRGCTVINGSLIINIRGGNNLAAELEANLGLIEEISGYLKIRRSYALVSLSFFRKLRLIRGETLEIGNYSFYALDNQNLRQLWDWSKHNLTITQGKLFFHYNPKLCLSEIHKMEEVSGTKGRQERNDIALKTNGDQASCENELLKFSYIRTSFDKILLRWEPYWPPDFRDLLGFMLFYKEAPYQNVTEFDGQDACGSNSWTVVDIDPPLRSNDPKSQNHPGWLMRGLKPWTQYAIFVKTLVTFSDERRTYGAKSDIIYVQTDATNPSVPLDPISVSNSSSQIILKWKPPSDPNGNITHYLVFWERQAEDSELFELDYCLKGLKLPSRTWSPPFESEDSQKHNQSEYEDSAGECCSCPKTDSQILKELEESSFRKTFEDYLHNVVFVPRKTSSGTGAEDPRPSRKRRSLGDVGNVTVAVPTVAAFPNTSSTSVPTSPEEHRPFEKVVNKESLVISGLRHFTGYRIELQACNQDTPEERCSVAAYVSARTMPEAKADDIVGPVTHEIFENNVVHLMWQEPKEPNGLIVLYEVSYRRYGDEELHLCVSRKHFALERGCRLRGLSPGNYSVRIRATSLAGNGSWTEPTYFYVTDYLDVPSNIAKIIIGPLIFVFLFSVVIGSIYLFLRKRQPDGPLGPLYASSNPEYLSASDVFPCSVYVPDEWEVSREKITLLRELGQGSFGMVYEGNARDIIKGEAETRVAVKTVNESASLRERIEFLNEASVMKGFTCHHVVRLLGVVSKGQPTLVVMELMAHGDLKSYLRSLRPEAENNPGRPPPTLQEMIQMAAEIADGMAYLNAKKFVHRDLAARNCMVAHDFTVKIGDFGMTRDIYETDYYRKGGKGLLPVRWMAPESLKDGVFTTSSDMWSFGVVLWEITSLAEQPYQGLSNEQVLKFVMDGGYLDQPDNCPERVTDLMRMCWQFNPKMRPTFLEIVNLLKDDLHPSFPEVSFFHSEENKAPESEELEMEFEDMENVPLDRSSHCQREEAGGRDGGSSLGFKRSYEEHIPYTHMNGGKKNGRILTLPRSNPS
Method: as §1

JNK3 = molecular target: T28, JNK3 (Homo sapiens, UniProt P53779); details: LL6 at 10 μM; read-out: Percent Control
T28 construct: purchased DiscoverX KINOMEscan
Method: as §1

TSSK1B = molecular target: T29, TSSK1B (Homo sapiens, UniProt Q9BXA7); details: LL6 at 10 μM; read-out: Percent Control
T29 construct: purchased DiscoverX KINOMEscan
Method: as §1

FGFR3 = molecular target: T30, FGFR3 (Homo sapiens, UniProt P22607); details: LL6 at 10 μM; read-out: Percent Control
T30 construct: purchased DiscoverX KINOMEscan
Method: as §1

PIK3C2B = molecular target: T31, PIK3C2B (Homo sapiens, UniProt O00750); details: LL6 at 10 μM; read-out: Percent Control
T31 construct: purchased DiscoverX KINOMEscan
Method: as §1

BRAF = molecular target: T32, BRAF (Homo sapiens, UniProt P15056); details: LL6 at 10 μM; read-out: Percent Control
T32 construct: purchased DiscoverX KINOMEscan
T32 sequence (P15056 whole entry): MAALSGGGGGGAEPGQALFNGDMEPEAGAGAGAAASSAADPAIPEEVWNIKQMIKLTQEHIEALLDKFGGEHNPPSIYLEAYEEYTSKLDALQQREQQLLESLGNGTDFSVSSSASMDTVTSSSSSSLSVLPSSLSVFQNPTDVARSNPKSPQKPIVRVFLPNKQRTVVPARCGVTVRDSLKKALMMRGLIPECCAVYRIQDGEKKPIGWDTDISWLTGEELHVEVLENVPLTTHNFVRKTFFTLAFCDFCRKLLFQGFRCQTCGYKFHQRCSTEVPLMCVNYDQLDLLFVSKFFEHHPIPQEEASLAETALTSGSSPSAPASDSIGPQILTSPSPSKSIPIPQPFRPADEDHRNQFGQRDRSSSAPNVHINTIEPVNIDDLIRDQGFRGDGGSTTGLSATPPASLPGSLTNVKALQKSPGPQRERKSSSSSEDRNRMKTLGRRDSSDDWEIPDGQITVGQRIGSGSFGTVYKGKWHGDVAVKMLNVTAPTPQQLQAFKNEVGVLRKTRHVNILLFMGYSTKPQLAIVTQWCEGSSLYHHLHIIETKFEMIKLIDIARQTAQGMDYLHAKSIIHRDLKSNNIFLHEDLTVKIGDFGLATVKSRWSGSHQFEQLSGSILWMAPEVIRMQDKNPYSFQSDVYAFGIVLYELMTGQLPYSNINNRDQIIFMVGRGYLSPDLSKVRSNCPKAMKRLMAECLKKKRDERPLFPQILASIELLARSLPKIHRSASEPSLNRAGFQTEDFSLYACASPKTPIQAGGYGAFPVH
Method: as §1

BRAF(V600E) = molecular target: T33, BRAF(V600E) (Homo sapiens, UniProt P15056, V600E); details: LL6 at 10 μM; read-out: Percent Control
T33 construct: purchased DiscoverX KINOMEscan
T33 sequence (P15056 whole entry V600E): as the sequence (P15056 whole entry) above, with V600E counted along it
Method: as §1

MEK1 = molecular target: T34, MEK1 (Homo sapiens, UniProt Q02750); details: LL6 at 10 μM; read-out: Percent Control
T34 construct: purchased DiscoverX KINOMEscan
Method: as §1

MARK3 = molecular target: T35, MARK3 (Homo sapiens, UniProt P27448); details: LL6 at 10 μM; read-out: Percent Control
T35 construct: purchased DiscoverX KINOMEscan
Method: as §1

JNK1 = molecular target: T36, JNK1 (Homo sapiens, UniProt P45983); details: LL6 at 10 μM; read-out: Percent Control
T36 construct: purchased DiscoverX KINOMEscan
Method: as §1

[1] = molecular target: T37, TYK2(JH1domain-catalytic) (Homo sapiens, UniProt P29597); details: LL6 at 10 μM; read-out: Percent Control
T37 construct: TYK2(JH1domain-catalytic); purchased DiscoverX KINOMEscan
Method: as §1

PDGFRB = molecular target: T38, PDGFRB (Homo sapiens, UniProt P09619)
T38 construct: purchased DiscoverX KINOMEscan
T38 sequence (P09619 33-1106): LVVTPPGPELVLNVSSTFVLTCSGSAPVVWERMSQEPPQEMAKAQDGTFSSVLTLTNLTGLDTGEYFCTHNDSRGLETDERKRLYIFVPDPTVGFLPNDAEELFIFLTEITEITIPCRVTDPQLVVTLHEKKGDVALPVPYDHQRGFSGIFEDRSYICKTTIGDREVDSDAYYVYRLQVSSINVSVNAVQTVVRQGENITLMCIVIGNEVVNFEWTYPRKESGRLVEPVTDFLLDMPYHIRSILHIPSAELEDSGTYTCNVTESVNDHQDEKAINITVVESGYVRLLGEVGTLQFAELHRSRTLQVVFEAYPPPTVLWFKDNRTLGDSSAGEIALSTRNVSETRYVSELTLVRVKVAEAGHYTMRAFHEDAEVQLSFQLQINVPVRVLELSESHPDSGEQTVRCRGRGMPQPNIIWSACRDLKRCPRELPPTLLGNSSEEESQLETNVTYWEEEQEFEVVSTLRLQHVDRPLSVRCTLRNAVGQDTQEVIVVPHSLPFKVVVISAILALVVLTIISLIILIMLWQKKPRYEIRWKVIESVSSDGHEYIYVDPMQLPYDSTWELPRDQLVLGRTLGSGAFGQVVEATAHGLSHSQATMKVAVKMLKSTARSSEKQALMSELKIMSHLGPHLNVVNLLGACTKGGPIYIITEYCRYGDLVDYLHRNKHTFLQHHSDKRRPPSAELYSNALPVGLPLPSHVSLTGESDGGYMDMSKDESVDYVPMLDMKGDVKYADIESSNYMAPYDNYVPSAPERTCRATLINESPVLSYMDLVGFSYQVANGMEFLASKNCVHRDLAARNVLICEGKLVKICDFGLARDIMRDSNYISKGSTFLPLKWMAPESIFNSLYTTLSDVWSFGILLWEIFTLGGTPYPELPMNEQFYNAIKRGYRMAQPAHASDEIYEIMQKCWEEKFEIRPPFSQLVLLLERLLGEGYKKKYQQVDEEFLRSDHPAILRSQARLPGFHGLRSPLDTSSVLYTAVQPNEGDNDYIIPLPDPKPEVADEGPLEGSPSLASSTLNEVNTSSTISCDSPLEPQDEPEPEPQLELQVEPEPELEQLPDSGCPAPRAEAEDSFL
Method: as §1

p38-alpha = molecular target: T39, p38-alpha (Homo sapiens, UniProt Q16539); details: LL6 at 10 μM; read-out: Percent Control
T39 construct: purchased DiscoverX KINOMEscan
T39 sequence (Q16539 whole entry): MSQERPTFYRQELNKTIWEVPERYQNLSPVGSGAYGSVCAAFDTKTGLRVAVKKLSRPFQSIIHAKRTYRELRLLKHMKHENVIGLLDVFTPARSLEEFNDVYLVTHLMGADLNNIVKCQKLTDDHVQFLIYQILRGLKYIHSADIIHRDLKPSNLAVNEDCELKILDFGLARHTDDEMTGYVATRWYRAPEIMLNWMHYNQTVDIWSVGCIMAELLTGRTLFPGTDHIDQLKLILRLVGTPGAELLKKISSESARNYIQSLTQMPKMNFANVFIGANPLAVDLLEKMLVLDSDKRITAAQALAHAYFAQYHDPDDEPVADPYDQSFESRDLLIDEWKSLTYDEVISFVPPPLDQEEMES
Method: as §1

PDPK1 = molecular target: T40, PDPK1 (Homo sapiens, UniProt O15530); details: LL6 at 10 μM; read-out: Percent Control
T40 construct: purchased DiscoverX KINOMEscan
Method: as §1

[2] = LL6 at 10 μM, read-out: Percent Control

Nc1ncnc2c1c(-c1ccc(Cl)cc1)nn2CCn1cc(COc2ccc(Nc3nccc(Nc4cnc5ccccc5c4)n3)cc2)nn1 [LL6]
remaining binding at 10 µM (YANK3): 100%
remaining binding at 10 µM (PKAC-alpha): 36%
remaining binding at 10 µM (ERBB2): 100%
remaining binding at 10 µM (JNK2): 67%
remaining binding at 10 µM (TIE2): 62%
remaining binding at 10 µM (PLK3): 90%
remaining binding at 10 µM (ERBB4): 40%
remaining binding at 10 µM (ZAP70): 100%
remaining binding at 10 µM (CDK9): 100%
remaining binding at 10 µM (CDK3): 97%
remaining binding at 10 µM (PDGFRA): 64%
remaining binding at 10 µM (PIK3CA): 100%
remaining binding at 10 µM (ULK2): 96%
remaining binding at 10 µM (SRPK3): 84%
remaining binding at 10 µM (CDK2): 99%
remaining binding at 10 µM (p38-beta): 65%
remaining binding at 10 µM (BTK): 100%
remaining binding at 10 µM (PRKCE): 100%
remaining binding at 10 µM (MEK2): 95%
remaining binding at 10 µM (PCTK1): 78%
remaining binding at 10 µM (EGFR): 82%
remaining binding at 10 µM (PAK4): 97%
Kd (CSF1R; CSF1R, 11-point dose response, duplicate): did not show dose-dependent inhibition curves
inhibition at 10 µM (CSF1R; CSF1R, LL6 at 10 µM): > 65%
remaining binding at 10 µM (CSF1R; [2]): 29%
remaining binding at 10 µM (PAK1): 100%
remaining binding at 10 µM (MKNK2): 89%
remaining binding at 10 µM (KIT(V559D,T670I)): 80%
Kd (IR; IR, 11-point dose response, duplicate): not accurately measurable
inhibition at 10 µM (IR; IR, LL6 at 10 µM): > 65%
remaining binding at 10 µM (IR; [2]): 35%
remaining binding at 10 µM (JNK3): 42%
remaining binding at 10 µM (TSSK1B): 100%
remaining binding at 10 µM (FGFR3): 89%
remaining binding at 10 µM (PIK3C2B): 100%
remaining binding at 10 µM (BRAF): 45%
remaining binding at 10 µM (BRAF(V600E)): 22%
remaining binding at 10 µM (MEK1): 65%
remaining binding at 10 µM (MARK3): 100%
remaining binding at 10 µM (JNK1): 100%
remaining binding at 10 µM [1]: 100%
remaining binding at 10 µM (PDGFRB; [2]): 5%
inhibition at 10 µM (PDGFRB; PDGFRB, LL6 at 10 µM): > 65%
remaining binding at 10 µM (p38-alpha): 100%
remaining binding at 10 µM (PDPK1): 87%
